Test system: PBMCs infected with VSV-G pseudotyped HIV virus (VSV-G/pNLG1-P2A-ΔEnv)
Test: cells
Format: cell-based
Conditions: Homo sapiens, PBMC, read-out: TACK EC50

Compound	EC50
Cc1nc[nH]c(=O)c1Cc1ccc2c(c1)NC(=O)N[C@]2(C#CC1CC1)C(F)(F)F [Example 18, (S)-4-(cyclopropylethynyl)-7-((4-methyl-6-oxo-1,6-dihydro-pyrimidin-5-yl)methyl)-4-(trifluoromethyl)-3,4-dihydro-quinazolin-2(1H)-one]	0.174 µM
Nc1cc(Cc2ccc3c(c2)NC(=O)N[C@]3(C#CC2CC2)C(F)(F)F)ccc1S(N)(=O)=O [Example 7]	0.23 µM
Cc1nc(C)c(Cc2cc3c(cc2Cl)[C@@](C#CC2CC2)(C(F)(F)F)NC(=O)N3)c(=O)[nH]1 (single isomer, unassigned) [Example 62B]	0.0687 µM
Cc1nc(C)c(Cc2ccc3c(c2)NC(=O)N[C@]3(C#CC2CC2)C(F)(F)F)c(=O)[nH]1 [Example 19, (S)-4-(cyclopropylethynyl)-7-((2,4-dimethyl-6-oxo-1,6-dihydropyrimidin-5-yl)meth-yl)-4-(trifluoromethyl)-3,4-dihydroquinazolin-2(1H)-one]	0.136 µM
N#Cc1cnccc1Cc1cc2c(cc1F)[C@@](C#CC1CC1)(C(F)(F)F)NC(=O)N2 [Example 56, (S)-4-((4-(cyclopropylethynyl)-6-fluoro-2-oxo-4-(trifluoromethyl)-1,2,3,4-tetrahydroquinazolin-7-yl)methyl)nicotinonitrile]	0.0835 µM
Cn1cc(Cc2ccc3c(c2)NC(=O)N[C@]3(C#CC2CC2)C(F)(F)F)ccc1=O [Example 4, (S)-4-(cyclopropylethynyl)-7-((1-methyl-6-oxo-1,6-dihydropyridin-3-yl)methyl)-4-(trifluoromethyl)-3,4-dihydroquinazolin-2(1H)-one]	0.148 µM
CC(F)(F)[C@@]1(C#CC2CC2)NC(=O)Nc2cc(Cc3nc(N)ncc3F)ccc21 [Example 58, (S)-7-((2-amino-5-fluoropyrimidin-4-yl)methyl)-4-(cyclopropylethynyl)-4-(1,1-difluoroethyl)-3,4-dihydroquinazolin-2(1H)-one]	0.0828 µM
CS(=O)(=O)c1ccc(Cc2cc3c(cc2F)[C@@](C#CC2CC2)(C(F)(F)F)NC(=O)N3)cc1 [Example 10, (S)-4-(cyclopropylethynyl)-6-fluoro-7-(4-(methylsulfonyl)-benzyl)-4-(trifluoromethyl)-3,4-dihydroquinazolin-2(1H)-one]	0.38 µM
CC(F)(F)[C@@]1(C#CC2CC2)NC(=O)Nc2cc(Cc3ccnc(N)n3)c(F)cc21 [Example 47, (S)-7-((2-aminopyrimidin-4-yl)methyl)-4-(cyclopropylethynyl)-4-(1,1-difluoroethyl)-6-fluoro-3,4-dihydroquinazolin-2(1H)-one]	0.0171 µM
Cn1ccc(Cc2ccc3c(c2)NC(=O)N[C@]3(C#CC2CC2)C(F)(F)F)cc1=O [Example 5, (S)-4-(cyclopropylethynyl)-7-((1-methyl-2-oxo-1,2-dihydropyridin-4-yl)methyl)-4-(trifluoromethyl)-3,4-dihydroquinazolin-2(1H)-one]	0.16 µM
Cc1ccc(Cc2ccc3c(c2)NC(=O)N[C@]3(C#CC2CC2)C(F)(F)F)c(=O)[nH]1 [Example 1, (S)-4-(cyclopropylethynyl)-7-((6-methyl-2-oxo-1,2-dihydropyridin-3-yl)methyl)-4-(trifluoromethyl)-3,4-dihydroquinazolin-2(1H)-one]	0.12 µM
N#Cc1cc(Cc2cc3c(cc2F)[C@@](C#CC2CC2)(C(F)(F)F)NC(=O)N3)[n+]([O-])cc1OCCO [Example 43, (S)-4-cyano-2-((4-(cyclopropylethynyl)-6-fluoro-2-oxo-4-(trifluoromethyl)-1,2,3,4-tetrahydroquinazolin-7-yl)methyl)-5-(2-hydroxyethoxy)pyridine 1-oxide]	0.166 µM
CC(F)(F)[C@@]1(C#CC2CC2)NC(=O)Nc2cc(Cc3ccc(S(N)(=O)=O)cc3)ccc21 (single isomer, unassigned) [Example 20]	0.115 µM
NS(=O)(=O)c1ccc(Cc2ccc3c(c2)NC(=S)N[C@]3(C#CC2CC2)C(F)(F)F)cc1 [Example 44, (S)-4-((4-(cyclopropylethynyl)-2-thioxo-4-(trifluoromethyl)-1,2,3,4-tetrahydroquinazolin-7-yl)methyl)benzenesulfonamide]	0.18 µM
Nc1ncc(F)c(Cc2cc3c(cc2F)[C@@](C#CC2CC2)(C(F)(F)F)NC(=O)N3)n1 [Example 29, (S)-7-((2-amino-5-fluoropyr-imidin-4-yl)methyl)-4-(cyclo-propylethynyl)-6-fluoro-4-(trifluoromethyl)-3,4-dihydro-quinazolin-2(1H)-one]	0.0497 µM
Nc1ncc(Cl)c(Cc2ccc3c(c2)NC(=O)N[C@]3(C#CC2CC2)C(F)(F)F)n1 [Example 28, (S)-7-((2-amino-5-chloropyr-imidin-4-yl)methyl)-4-(cyclo-propylethynyl)-4-(trifluoro-methyl)-3,4-dihydroquinazo-lin-2(1H)-one]	0.144 µM
N#Cc1c(Cc2cc3c(cc2F)[C@@](C#CC2CC2)(C(F)(F)F)NC(=O)N3)ccnc1N [Example 52, (S)-2-amino-4-((4-(cyclo-propylethynyl)-6-fluoro-2-oxo-4-(trifluoromethyl)-1,2,3,4-tetrahydroquinazolin-7-yl)methyl)nicotinonitrile]	0.0214 µM

Compound	EC50
O=C1Nc2cc(Cc3ccncc3)c(F)cc2[C@@](C#CC2CC2)(C(F)(F)F)N1 [Example 57, (S)-4-(cyclopropylethynyl)-6-fluoro-7-(pyridin-4-ylmethyl)-4-(trifluoromethyl)-3,4-dihydroquinazolin-2(1H)-one]	0.12 µM
CN1C(=O)Nc2cc(Cc3ccnc(N)n3)c(F)cc2[C@@]1(C#CC1CC1)C(F)(F)F (single isomer, unassigned) [Example 40]	0.0416 µM
Nc1cncc(Cc2ccc3c(c2)NC(=O)N[C@]3(C#CC2CC2)C(F)(F)F)n1 [Example 54, (S)-7-((6-aminopyrazin-2-yl)-methyl)-4-(cyclopropyl-ethynyl)-4-(trifluoromethyl)-3,4-dihydroquinazolin-2(1H)-one]	0.0673 µM
O=C1Nc2cc(Cc3ccc(OCCO)cn3)c(F)cc2[C@@](C#CC2CC2)(C(F)(F)F)N1 [Example 42, (S)-4-(cyclopropylethynyl)-6-fluoro-7-((5-(2-hydroxyethoxy)pyridin-2-yl)methyl)-4-(trifluoromethyl)-3,4-dihydroquinazolin-2(1H)-one]	0.161 µM
Nc1ncc(F)c(Cc2cc3c(cc2Cl)[C@@](C#CC2CC2)(C(F)(F)F)NC(=O)N3)n1 [Example 32, (S)-7-((2-amino-5-fluoropyr-imidin-4-yl)methyl)-6-chloro-4-(cyclopropylethynyl)-4-(trifluoromethyl)-3,4-dihydro-quinazolin-2(1H)-one]	0.156 µM
Nc1nccc(Cc2cc3c(cc2Cl)[C@@](C#CC2CC2)(C(F)(F)F)NC(=O)N3)n1 [Example 31, (S)-7-((2-aminopyrimidin-4-yl)methyl)-6-chloro-4-(cyclo-propylethynyl)-4-(trifluoro-methyl)-3,4-dihydroquinazo-lin-2(1H)-one]	0.0587 µM
Nc1nc(Cc2ccc3c(c2)NC(=O)N[C@]3(C#CC2CC2)C(F)(F)F)ccc1CO [Example 45, (S)-7-((6-amino-5-(hydroxymethyl)pyridin-2-yl)methyl)-4-(cyclopropylethynyl)-4-(trifluoromethyl)-3,4-dihydroquinazolin-2(1H)-one]	0.0532 µM
Nc1cc(Cc2ccc3c(c2)NC(=O)N[C@]3(C#CC2CC2)C(F)(F)F)ccn1 [Example 12, (S)-2-amino-4-((4-(cyclopropylethynyl)-2-oxo-4-(trifluoromethyl)-1,2,3,4-tetrahydroquinazolin-7-yl)methyl)pyridin-1-ium 2,2,2-trifluoroacetate]	0.132 µM
Cc1ncc(Cc2ccc3c(c2)NC(=O)N[C@]3(C#CC2CC2)C(F)(F)F)c(=O)[nH]1 [Example 16, (S)-4-(cyclopropylethynl)-7-((2-methyl-6-oxo-1,6-dihydropyrimidin-5-yl)methyl)-4-(trifluoromethyl)-3,4-dihydroquinazolin-2(1H)-one]	0.153 µM
Cc1nc(C)c(Cc2ccc3c(c2)NC(=O)N(C)[C@]3(C#CC2CC2)C(F)(F)F)c(=O)[nH]1 [Example 22]	0.23 µM
Nc1cccc(Cc2cc3c(cc2F)[C@@](C#CC2CC2)(C(F)(F)F)NC(=O)N3)n1 [Example 13, (S)-2-amino-6-((4-(cyclopropyl-ethynyl)-6-fluoro-2-oxo-4-(trifluoromethyl)-1,2,3,4-tetra-hydroquinazolin-7-yl)methyl)-pyridin-1-ium 2,2,2-trifluoro-acetate]	0.13 µM
Nc1nc(Cc2cc3c(cc2F)[C@@](C#CC2CC2)(C(F)(F)F)NC(=O)N3)cnc1CO [Example 46, (S)-7-((6-amino-5-(hydroxymethyl)pyrazin-2-yl)methyl)-4-(cyclopropylethynyl)-6-fluoro-4-(trifluoromethyl)-3,4-dihydroquinazolin-2(1H)-one]	0.108 µM
CN1C(=O)Nc2cc(Cc3ccnc(N)n3)ccc2[C@@]1(C#CC1CC1)C(F)(F)F [Example 39, (S)-7-((2-aminopyrimidin-4-yl)methyl)-4-(cyclopropylethynyl)-3-methyl-4-(trifluoromethyl)-3,4-dihydroquinazolin-2(1H)-one]	0.0603 µM
Nc1nccc(Cc2c(F)cc3c(c2F)NC(=O)N[C@]3(C#CC2CC2)C(F)(F)F)n1 [Example 59, (S)-7-((2-aminopyrimidin-4-yl)methyl)-4-(cyclopropylethynyl)-6,8-difluoro-4-(trifluoromethyl)-3,4-dihydroquinazolin-2(1H)-one]	0.122 µM
CCN1C(=O)Nc2cc(Cc3c(C)nc(C)[nH]c3=O)ccc2[C@@]1(C#CC1CC1)C(F)(F)F [Example 21, (S)-4-(cyclopropylethynyl)-7-((2,4-dimethyl-6-oxo-1,6-dihydropyrimidin-5-yl)methyl)-3-ethyl-4-(trifluoromethyl)-3,4-dihydroquinazolin-2(1H)-one]	0.139 µM
Cc1cc(Cc2ccc3c(c2)NC(=O)N[C@]3(C#CC2CC2)C(F)(F)F)nc(N)n1 [Example 27, (S)-7-((2-amino-6-methylpyr-imidin-4-yl)methyl)-4-(cyclo-propylethynyl)-4-(trifluoro-methyl)-3,4-dihydroquin-azolin-2(1H)-one]	0.152 µM

— patent publication US12492183B2, “Tetrahydroquinazoline derivatives as selective cytotoxic agents” (Merck Sharp & Dohme LLC, priority 2020, dated 2025)
